Measured values: patent US7374898B2, “Peptide inhibitors against seprase” (The Research Foundation of State University of New York, priority 2004, dated 2008)
“Also recorded” adds a separate entry of the source. Where two headings read alike, the source gives them in different places. Where a SMILES comes first, the peptide text is derived from it. Bridges are numbered along the chain shown (N, C = ends).

Tests used:
seprase [1] = target: T1, seprase (Homo sapiens, UniProt Q12884); assay: Prolyl dipeptidase activity of seprase, Gly-Pro-pNA substrate; details: for inhibition of seprase: FIG. 1; for inhibition of the prolyl dipeptidase activity of seprase: Gly-Pro-pNA 2 mM, different concentrations of peptides
T1 sequence (Q12884 1-760): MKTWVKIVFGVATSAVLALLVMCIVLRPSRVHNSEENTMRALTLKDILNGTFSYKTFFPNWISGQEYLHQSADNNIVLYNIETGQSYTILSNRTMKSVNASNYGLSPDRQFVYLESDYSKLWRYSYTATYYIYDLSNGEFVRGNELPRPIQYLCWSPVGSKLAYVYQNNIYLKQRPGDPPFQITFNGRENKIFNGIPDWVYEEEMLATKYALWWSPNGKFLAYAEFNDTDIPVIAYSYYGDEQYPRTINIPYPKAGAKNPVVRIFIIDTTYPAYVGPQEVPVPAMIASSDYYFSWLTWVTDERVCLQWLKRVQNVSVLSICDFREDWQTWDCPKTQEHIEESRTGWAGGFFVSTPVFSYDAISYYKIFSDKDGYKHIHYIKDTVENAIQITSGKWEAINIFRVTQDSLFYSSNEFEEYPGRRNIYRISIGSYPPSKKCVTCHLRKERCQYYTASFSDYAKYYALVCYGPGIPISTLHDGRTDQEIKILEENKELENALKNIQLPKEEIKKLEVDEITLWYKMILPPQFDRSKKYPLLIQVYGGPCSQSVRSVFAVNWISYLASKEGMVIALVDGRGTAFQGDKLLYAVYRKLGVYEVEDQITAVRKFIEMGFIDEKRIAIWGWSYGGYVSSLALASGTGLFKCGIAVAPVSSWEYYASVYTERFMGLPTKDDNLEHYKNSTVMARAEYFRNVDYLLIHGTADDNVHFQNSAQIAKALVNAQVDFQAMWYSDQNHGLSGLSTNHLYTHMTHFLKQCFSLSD

seprase [2] = target: T1, seprase; assay: Gelatinolytic activity of seprase, soluble fluorescent DQ-gelatin assay; type: biochemical; parameters: Native seprase, which was isolated from LOX cells grown on type I collagen films according to previously described procedures; endogenous in cells; host or cells: LOX human amelanotic melanoma cells; WGA-enriched fraction, immuno-captured with mAb D8; details: DQ-gelatin 25 μg/ml, 37° C., 16 hours, FIG. 1B
GFP-LOX cells = assay: Melanoma growth and metastasis to lung and liver in nude mice co-inoculated with GFP-LOX cells; type: in vivo, NCR Nude mice; details: CDMWERVSRC 300 μM or control peptide 500 μM, 28 days
Description: Number of GFP-melanoma cells or micrometastases in lung (J) and liver (K) tissues freshly excised from animals was counted per 3×10^5 μm^2 under an epifluorescence microscope.
We next determined whether [sequence] […] GFP-tagged LOX cells, 2×10^5 cells/mouse, were co-inoculated subcutaneously with peptides into flanks of NCR Nude mice, and followed by daily injections of peptide solutions into sites 2 mm adjacent to tumors. […] GFP-tagged LOX cells, 2×10^5 cells suspended in 100 ml of serum-free DMEM, that were pre-incubated with [sequence] [SEQ ID NO: 3] (300 μM) or control peptides (500 μM) were injected subcutaneously into flanks of NCR Nude mice (female; Taconic Co., Germantown, N.Y.). In addition, [sequence] [SEQ ID NO: 3] (300 μM) and control peptides (500 μM) were daily injected into the subcutaneous tissue 2 mm adjacent to tumor sites. Total of 3 mice were used for each experimental or control group. Tumors were measured twice a week. After 28 days, mice were sacrificed by anesthetic overdose. Tissues including primary tumor, lung and liver were removed and examined for GFP tagged melanoma cells and micrometastases by epifluorescence microscopy, followed by enumeration and photography. Melanoma cells in lung and liver were calculated by counting number of GFP-melanoma cells or micrometastases in these tissues freshly excised from animals in a 3×10 μm^2 area in 10 different regions.

LOX cells [3] = assay: Overall collagen degradation by cells, Bodipy FL C5 labelled type I collagen microtiter plate; type: cell-based, human; details: 16 hours, 37° C., FIG. 3A
Description: The assay involves coating 96-well microtiter plates with Bodipy FL C5 labelled type I collagen films. It allows direct measurement of collagen degradation by cells, as the release of fluorescent intensity is in proportion to the degree of collagen degradation. To prepare collagen films, collagen solution mixed with DMEM (1:4 v/v) was coated as a thin layer in each well of a 96-well microtiter plate, and incubated for 1 h at 37° C. to allow gel formation. Labeling of collagen films involved borate buffer, pH 8.3, containing 3 mg of BODIPY FL C5 (Molecular Probes) at 25° C. To determine collagen degradation by cells, LOX cells (10^4/well) were seeded in a 96-well microtiter plate pre-coated with Bodipy FL C5 labeled type I collagen, and incubated in the presence of different concentrations of inhibitors at 37° C. for 16 hours. The increase in fluorescence at 485 nm (excitation)/538 nm (emission) is proportional to the ability of cells to degrade fluorescently labeled collagen films. Change in fluorescent intensity was monitored with a fluorescence microtiter plate reader (Molecular Devices, Sunnyvale, Calif.).

SKMEL-28 cells = assay: Peptide binding to seprase-negative SKMEL-28 cells (ELISA and immunofluorescence); type: cell-based, human
Description: (§1) It was also determined if synthetic peptides targeting seprase could bind seprase-expressing LOX cells but not seprase-negative tumor cells including the human melanoma cell line SKMEL-28.

LOX cells [4] = assay: Peptide binding to seprase-expressing LOX cells (ELISA and immunofluorescence); type: cell-based, human
Description: as §1

[5] = system: human ovarian tumor cells
LOX cells [6] = assay: Cell viability, apoptosis and cell death assays on collagen films; type: cell-based; parameters: dose or concentration left out as unconfirmed
Description: In parallel to the assay assessing the overall collagen degradation by LOX cells described above (FIG. 3A), LOX cells grown on collagen films were determined for their physiological responses to peptide or other protease inhibitors in terms of cell viability (FIG. 3B), apoptosis (FIG. 3C) and cell death (FIG. 3D). Cell viability, apoptosis and cell death assays were performed using Molecular Probes (Eugene, Oreg.) Live/Dead Viability/Cytotoxicity kit and Vybrant Apoptosis Assay Kit #4 and followed the manufacturer's instruction. LOX cells (10^4/well) were cultured on a type I collagen coated 96-well microtiter plate in the presence of inhibitors at 37° C. overnight. After washing gently with PBS, dyes for the cell viability assay (Calcein Am, 2 mM, only stained live cells) and for the apoptosis assay (YO-PRO [a fluorescent nuclear dye], 0.25 mM, stained apoptotic cells; ethidium homodimer-1, 4 mM, stained dead cells) were added and incubated at 25° C. for 45 min. The fluorescence intensity was read at the wavelength of 485 nm/538 nm or 544 nm/612 nm. In the LIVE/DEAD Viability/Cytotoxicity Assay, high fluorescent intensity indicates high number of viable cells, whereas in the Vybrant Apoptosis Assay, high fluorescent intensity units indicate high number of apoptotic or dead cells.

[7] = system: Human ovarian cancer cells isolated from mouse ascites; assay: In vitro extracellular matrix degradation and ingestion assay on TRITC-type I collagen films; type: cell-based; details: at 1 mM, 16 to 24 hours
Description: It consists of seeding tumor cells on fluorescently labeled type I collagen films and determining the ability of tumor cells to degrade and ingest the fluorescently labeled extracellular matrix. Two inhibitors, H-Ile-Pro-NHO-PNB (DPP4-specific) and the cyclic peptide [sequence] [SEQ ID NO:3] (seprase-specific) were used. Human ovarian cancer cells isolated from mouse ascites as described in Example 7 were seeded on TRITC-type I collagen films.

matrix metalloproteinase = details: supplier information; read-out: Ki of matrix metalloproteinase inhibitor; cited from earlier work
DPP4 = DPP4 (Homo sapiens, UniProt P27487); details: reported values; read-out: KiDPP4 of reported DPP4 competitive inhibitors; cited from earlier work
Chain of DPP4 (P27487 whole entry, species assumed): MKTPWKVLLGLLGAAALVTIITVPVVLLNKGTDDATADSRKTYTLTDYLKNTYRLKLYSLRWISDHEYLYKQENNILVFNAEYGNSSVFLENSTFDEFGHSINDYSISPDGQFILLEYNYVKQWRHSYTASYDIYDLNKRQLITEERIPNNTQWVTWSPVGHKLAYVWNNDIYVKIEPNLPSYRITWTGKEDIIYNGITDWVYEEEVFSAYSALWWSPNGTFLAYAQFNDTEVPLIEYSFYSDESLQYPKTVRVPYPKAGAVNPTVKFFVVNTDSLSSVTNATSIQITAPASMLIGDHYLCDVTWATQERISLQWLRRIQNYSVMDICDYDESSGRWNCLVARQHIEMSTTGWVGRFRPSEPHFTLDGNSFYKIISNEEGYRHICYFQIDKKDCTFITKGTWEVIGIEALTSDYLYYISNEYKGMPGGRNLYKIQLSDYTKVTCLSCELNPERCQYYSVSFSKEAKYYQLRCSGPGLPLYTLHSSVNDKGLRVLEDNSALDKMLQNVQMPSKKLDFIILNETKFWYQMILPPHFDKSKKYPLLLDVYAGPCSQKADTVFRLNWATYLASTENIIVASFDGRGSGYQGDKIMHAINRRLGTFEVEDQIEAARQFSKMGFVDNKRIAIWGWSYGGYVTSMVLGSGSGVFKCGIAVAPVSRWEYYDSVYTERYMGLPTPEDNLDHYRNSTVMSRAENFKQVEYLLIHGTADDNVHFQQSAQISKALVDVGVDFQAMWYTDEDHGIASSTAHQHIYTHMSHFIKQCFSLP

DLDYLSKF
inhibition of seprase (seprase [1]): potent inhibitors | inhibition of the prolyl dipeptidase activity of seprase (seprase [1]; FIG. 1A): inhibit

YISGR [control peptide]
inhibition of the gelatinolytic activity of seprase (seprase [2]): do not | formation of liver micrometastases (GFP-LOX cells): did not | formation of lung micrometastases (GFP-LOX cells): did not | formation of LOX-derived human melanoma (GFP-LOX cells; co-inoculated s.c. and daily injections): did not

REMSDWRV
inhibitory effect relative to DMWERVSR (seprase [1]; % of the effect of DMWERVSR, FIG. 1A): less than 10% | inhibition of overall collagen degradation by LOX cells (words) (LOX cells [3]): did not

GRGTWN [control peptide]
inhibition of the prolyl dipeptidase activity of seprase (seprase [1]; FIG. 1A): no inhibition | inhibition of overall collagen degradation by LOX cells (words) (LOX cells [3]): did not

GGAGDMWERVSRG
binding to SKMEL-28 cells (SKMEL-28 cells): did not bind | binding to LOX cells (LOX cells [4]): strong binding

CSCC[C@@H]1NC(=O)[C@H](CC(=O)O)NC(=O)[C@@H](N)CSSC[C@@H](C(=O)O)NC(=O)[C@H](CCCNC(=N)N)NC(=O)[C@H](CO)NC(=O)[C@H](C(C)C)NC(=O)[C@H](CCCNC(=N)N)NC(=O)[C@H](CCC(=O)O)NC(=O)[C@H](Cc2c[nH]c3ccccc23)NC1=O (H-CDMWERVSRC-OH; disulfide 1-10 (inferred); N-terminus and C-terminus assumed)
increase of catalytic Km value (seprase [1]): 5 times | inhibition at 100 µM (seprase [1]; read-out: inhibition of seprase prolyl dipeptidase activity): > 60% | inhibition of growth in ascites and on peritoneum ([5]; mouse, in vivo, ip): more than 90% | toxicity to cells (LOX cells [6]): not toxic or lethal to cells

CCC(C)C(N)C(=O)N1CCSC1 (stereo not shown) [H-Ile-Thia]
inhibition of the prolyl dipeptidase activity of seprase (seprase [1]; FIG. 1A): inhibit | Ki (seprase [1]; read-out: Ki, prolyl dipeptidase activity of seprase, PBS pH 7.4, 37° C., 8.0 mM Gly-Pro-pNA, FIG. 1D): 100 nM | inhibition of the gelatinolytic activity of seprase (seprase [2]): did not inhibit

CC[C@H](C)[C@H](N)C(=O)N1CCC[C@H]1C(=O)NOC(=O)c1ccc([N+](=O)[O-])cc1 [H-Ile-Pro-NHO-PNB]
inhibition of growth in ascites and on peritoneum ([5]; i.p. human ovarian tumor cells, 8 weeks, equimolecular amounts): 50% | inhibition of the gelatinolytic activity of seprase (seprase [2]): did not inhibit | block of degradation and ingestion of collagen film [7]: 50% | inhibition of overall collagen degradation by LOX cells (words) (LOX cells [3]): inhibited the overall collagen degradation by LOX cells in a dose dependent manner | inhibition of overall collagen degradation by LOX cells (words) (LOX cells [3]; listed as H-Ile-Pro-NHO-pNB): weak

RKISASEFDRPLR [control peptide]
binding to SKMEL-28 cells (SKMEL-28 cells): did not bind | binding to LOX cells (LOX cells [4]): not

CC(C)(C)[C@H](NC(=O)[C@H](CCCc1ccc(Cl)cc1)CC(=O)NO)C(N)=O [CT-1746]
inhibition of overall collagen degradation by LOX cells (words) (LOX cells [3]): inhibited the overall collagen degradation by LOX cells in a dose dependent manner; also recorded: strongest inhibitory effect | Ki (matrix metalloproteinase): 122 nM

DMWERVSR
inhibition of seprase (seprase [1]): potent inhibitors | activity in inhibiting seprase prolyl dipeptidase compared with other inhibitors (seprase [1]; FIG. 1A): more active than DLDYLSKF | inhibition of the prolyl dipeptidase activity of seprase (seprase [1]; FIG. 1A): inhibit

GGYR
inhibition of the prolyl dipeptidase activity of seprase (seprase [1]; FIG. 1A): no inhibition

N[C@@H](CCC(=O)NCC(=O)NCC(=O)NCC(=O)NCC(=O)NCC(=O)O)C(=O)N1CCSC1 [H-Glu(Gly5)-Thia]
inhibition of the prolyl dipeptidase activity of seprase (seprase [1]; FIG. 1A): inhibit | Ki (DPP4): 80 nM
